Results on 15 compounds are retold here after patent US20260285876A1, “MACROCYCLIC COMPOUNDS AS USP1 INHIBITORS” (GUANGDONG NEWOPP BIOPHARMACEUTICALS CO., LTD., priority 2023, published 2026).

In this test the target is T1, USP1/UAF1 (Homo sapiens, UniProt O94782).
T1 construct: purchased R&D Systems
Kind of test: Deubiquitination assay for USP1/UAF1 (ubiquitin-rhodamine 110 substrate). Type of test: biochemical. Particulars: 0.5 nM USP1/UAF1, 150 nM ubiquitin-rhodamine, 50% inhibition compared to DMSO control. On the procedure: Deubiquitination assay for USP1/UAF1: compounds described here were tested for their ability to inhibit USP1 deubiquitinase activity in this assay using ubiquitin-rhodamine 110 as the substrate. The assay was conducted in the assay buffer (50 mM Tris-HCl, pH 7.8, 0.5 mM EDTA, 0.1 mg/ml Bovine Serum Albumin, 1 mM DTT, 0.01% Tween-20) in 384 well plates. 0.5 nM USP1/UAF1 (R&D Systems) was incubated with compounds in dose response format for 10 minutes at room temperature. Then the reaction was initiated by addition of 150 nM ubiquitin-rhodamine (R&D Systems). The fluorescence intensity was read after 45 minutes at Ex488/Em535 by CLARIOstar (BMG Labtech). IC50 response curves were plotted.

As usually defined, the IC50 is the midpoint of a concentration-inhibition curve. A high value points to weaker potency in that assay.

T1 sequence (O94782 whole entry): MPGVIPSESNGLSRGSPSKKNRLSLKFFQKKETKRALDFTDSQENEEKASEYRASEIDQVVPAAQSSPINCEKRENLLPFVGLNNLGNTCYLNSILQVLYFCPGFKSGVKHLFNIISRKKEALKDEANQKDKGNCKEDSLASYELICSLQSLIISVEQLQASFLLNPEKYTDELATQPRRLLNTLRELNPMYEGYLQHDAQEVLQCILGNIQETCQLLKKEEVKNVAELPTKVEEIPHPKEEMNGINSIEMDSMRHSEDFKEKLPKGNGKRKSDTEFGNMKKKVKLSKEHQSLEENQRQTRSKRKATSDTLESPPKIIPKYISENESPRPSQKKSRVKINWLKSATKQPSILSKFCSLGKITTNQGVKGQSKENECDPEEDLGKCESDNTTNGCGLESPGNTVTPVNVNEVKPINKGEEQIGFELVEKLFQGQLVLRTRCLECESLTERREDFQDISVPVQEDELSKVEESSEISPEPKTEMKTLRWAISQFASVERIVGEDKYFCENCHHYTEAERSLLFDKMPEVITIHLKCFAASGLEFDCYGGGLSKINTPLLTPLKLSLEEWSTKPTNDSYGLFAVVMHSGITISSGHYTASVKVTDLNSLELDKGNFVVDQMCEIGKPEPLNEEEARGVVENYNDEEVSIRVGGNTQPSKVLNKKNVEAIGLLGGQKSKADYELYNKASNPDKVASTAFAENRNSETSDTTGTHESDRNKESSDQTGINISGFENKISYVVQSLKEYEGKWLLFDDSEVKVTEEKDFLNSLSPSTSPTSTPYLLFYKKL
T1 sequence (Q8TAF3 whole entry partner): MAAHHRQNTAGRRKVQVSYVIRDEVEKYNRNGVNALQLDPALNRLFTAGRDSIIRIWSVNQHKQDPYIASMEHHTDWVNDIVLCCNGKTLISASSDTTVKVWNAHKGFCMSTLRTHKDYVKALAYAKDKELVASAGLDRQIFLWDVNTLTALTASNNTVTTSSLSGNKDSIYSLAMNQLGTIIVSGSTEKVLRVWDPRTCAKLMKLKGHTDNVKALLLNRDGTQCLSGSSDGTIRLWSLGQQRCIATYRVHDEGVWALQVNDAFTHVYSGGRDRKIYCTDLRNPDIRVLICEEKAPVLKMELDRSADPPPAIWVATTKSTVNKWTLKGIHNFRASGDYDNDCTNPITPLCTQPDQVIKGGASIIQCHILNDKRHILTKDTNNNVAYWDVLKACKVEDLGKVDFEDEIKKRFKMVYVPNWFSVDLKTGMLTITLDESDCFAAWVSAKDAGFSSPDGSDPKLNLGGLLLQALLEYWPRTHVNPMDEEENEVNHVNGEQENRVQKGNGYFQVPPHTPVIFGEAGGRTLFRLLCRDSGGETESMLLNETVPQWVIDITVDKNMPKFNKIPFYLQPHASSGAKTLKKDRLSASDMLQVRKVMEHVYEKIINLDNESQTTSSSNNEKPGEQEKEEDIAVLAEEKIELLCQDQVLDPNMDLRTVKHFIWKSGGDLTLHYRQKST

`FC(F)(F)c1cn(C2CC2)c(-c2ccc3c(c2)NCCCOc2ncnc(C4CC4)c2-c2ncc4ccc(n4n2)C3)n1` [Example 41, (Z)-1^6-cyclopropyl-4^4-(1-cyclopropyl-4-(trifluoromethyl)-1H-imidazol-2-yl)-9-oxa-5-aza-2(2,7)-pyrrolo[2,1-f][1,2,4]triazina-1(5,4)-pyrimidina-4(1,2)-benzenacyclononaphane]: the IC50 is not above 0.1 µM.
On to `FC(F)(F)c1cn(C2CC2)c(-c2ccc3c(c2)NCCOc2ncnc(C4CC4)c2-c2ncc4ccc(n4n2)C3)n1` [Example 42, (Z)-1^6-cyclopropyl-4^4-(1-cyclopropyl-4-(trifluoromethyl)-1H-imidazol-2-yl)-8-oxa-5-aza-2(2,7)-pyrrolo[2,1-f][1,2,4]triazina-1(5,4)-pyrimidina-4(1,2)-benzenacyclooctaphane], for which the IC50 is not above 0.1 µM.
The compound `CC(C)n1cc(C(F)(F)F)nc1-c1ccc2cc1C#CCCOc1ncnc(C3CC3)c1-c1ncc3cnn(c3n1)C2` [Example 43] had an IC50 of 0.1 to 1 µM.
The compound `CC(C)n1cc(C(F)(F)F)nc1-c1ccc2cc1/C=C/CCOc1ncnc(C3CC3)c1-c1ncc3cnn(c3n1)C2` [Example 44, (E)-1^6-cyclopropyl-4^4-(1-isopropyl-4-(trifluoromethyl)-1H-imidazol-2-yl)-2^1H-9-oxa-2(6,1)-pyrazolo[3,4-d]pyrimidina-1(5,4)-pyrimidina-4(1,3)-benzenacyclononaphan-5-ene] showed an IC50 not above 0.1 µM.
The value for `CC(C)n1cc(C(F)(F)F)nc1-c1ccc2cc1CCCCOc1ncnc(C3CC3)c1-c1ncc3cnn(c3n1)C2` [Example 45, 1^6-cyclopropyl-4^4-(1-isopropyl-4-(trifluoromethyl)-1H-imidazol-2-yl)-2^1H-9-oxa-2(6,1)-pyrazolo[3,4-d]pyrimidina-1(5,4)-pyrimidina-4(1,3)-benzenacyclononaphane] was not above 0.1 µM; that for `CC(C)n1cc(C(F)(F)F)nc1-c1ccc2cc1/C=C\CCOc1ncnc(C3CC3)c1-c1ncc3cnn(c3n1)C2` [Example 46, (Z)-1^6-cyclopropyl-4^4-(1-isopropyl-4-(trifluoromethyl)-1H-imidazol-2-yl)-2^1H-9-oxa-2(6,1)-pyrazolo[3,4-d]pyrimidina-1(5,4)-pyrimidina-4(1,3)-benzenacyclononaphan-5-ene] was not above 0.1 µM.
Compound `FC(F)(F)c1cn(C2CC2)c(-c2ccc3cc2CCCCOc2ncnc(C4CC4)c2-c2ncc4ccc(n4n2)C3)n1` [Example 47] showed an IC50 not above 0.1 µM.
In the case of `CC(C)n1cc(C(F)(F)F)nc1-c1ccc2cc1OCCCCOc1ncnc(C3CC3)c1-c1ncc3cnn(c3n1)C2` [Example 48, 1^6-cyclopropyl-4^4-(1-isopropyl-4-(trifluoromethyl)-1H-imidazol-2-yl)-2^1H-5,10-dioxa-2(6,1)-pyrazolo[3,4-d]pyrimidina-1(5,4)-pyrimidina-4(1,3)-benzenacyclodecaphane], the IC50 fell in the range of 0.1 to 1 µM.
As to `CC(C)n1cc(C(F)(F)F)nc1-c1ccc2cc1OCCCOc1ncnc(C3CC3)c1-c1ncc3ccc(=O)n(c3n1)C2` [Example 49, 1^6-cyclopropyl-4^4-(1-isopropyl-4-(trifluoromethyl)-1H-imidazol-2-yl)-2^7,2^8-dihydro-5,9-dioxa-2(2,8)-pyrido[2,3-d]pyrimidina-1(5,4)-pyrimidina-4(1,3)-benzenacyclononaphan-27-one], the half-maximal inhibitory concentration (IC50) is not above 0.1 µM.
`FC(F)(F)c1cn(C2CC2)c(-c2ccc3c(c2)/C=C/CCOc2ncnc(C4CC4)c2-c2ncc4ccc(n4n2)C3)n1` [Example 51, (2^1Z,5E)-1^6-cyclopropyl-4^4-(1-cyclopropyl-4-(trifluoromethyl)-1H-imidazol-2-yl)-8-oxa-2(2,7)-pyrrolo[2,1-f][1,2,4]triazina-1(5,4)-pyrimidina-4(1,2)-benzenacyclooctaphan-5-ene] registered an IC50 not above 0.1 µM.
The value for `FC(F)(F)c1cn(C2CC2)c(-c2ccc3cc2OCCCOc2ncnc(C4CC4)c2-c2ncc4ccc(n4n2)C3)n1` [Example 52, (Z)-1^6-cyclopropyl-4^4-(1-cyclopropyl-4-(trifluoromethyl)-1H-imidazol-2-yl)-5,9-dioxa-2(2,7)-pyrrolo[2,1-f][1,2,4]triazina-1(5,4)-pyrimidina-4(1,3)-benzenacyclononaphane] was not above 0.1 µM; that for `CC(C)n1cc(C(F)(F)F)nc1-c1ccc2c(c1)C#CCOc1ncnc(C3CC3)c1-c1ncc3cnn(c3n1)C2` [Example 54, (E)-16-cyclopropyl-44-(1-isopropyl-4-(trifluoromethyl)-1H-imidazol-2-yl)-21H-9-oxa-2(6,1)-pyrazolo[3,4-d]pyrimidina-1(5,4)-pyrimidina-4(1,2)-benzenacyclononaphan-5-ene4(1,2 benzenacyclononaphane] was not above 0.1 µM.
The value for `CC(C)n1cc(C(F)(F)F)nc1-c1ccc2c(c1)/C=C/CCOc1ncnc(C3CC3)c1-c1ncc3cnn(c3n1)C2` [Example 55, (E)-16-cyclopropyl-44-(1-isopropyl-4-(trifluoromethyl)-1H-imidazol-2-yl)-21H-9-oxa-2(6,1)-pyrazolo[3,4-d]pyrimidina-1(5,4)-pyrimidina-4(1,2)-benzenacyclononaphan-5-ene4(1,2)-benzenacyclononaphane] was not above 0.1 µM.
`Cc1cc(C(F)(F)F)nn1-c1ccc2cc1OCCCOc1ncnc(C3CC3)c1-c1ncc3cnn(c3n1)C2` [Example 56, 1^6-cyclopropyl-4^4-(5-methyl-3-(trifluoromethyl)-1H-pyrazol-1-yl)-2^1H-5,9-dioxa-2(6,1)-pyrazolo[3,4-d]pyrimidina-1(5,4)-pyrimidina-4(1,3)-benzenacyclononaphane]: the IC50 was not above 0.1 µM.
The compound `FC(F)(F)c1cn(C2CC2)c(-c2ccc3c(c2)/C=C/COc2ncnc(C4CC4)c2-c2ncc4cnn(c4n2)C3)n1` [Example 57] registered an IC50 not above 0.1 µM.
